In PMC5847048 (Psychopharmacology, 2017):
Read-outs that look alike come from different tables or passages of the source.

What was measured:
[1] = tested on: aged mice (18–19 months old); experiment: Sequential/spontaneous alternation (SA) working memory task in T-maze; assay type: in vivo, mouse; details: ITI 90 s
Procedure: Treatments were administered per os daily for nine consecutive days for studies involving the CSD and SA tasks. The 8th and the 9th oral administrations were given 60 min before acquisition and test phases in the CSD task, or before the training and the test sessions in the SA task.
The spontaneous alternation (SA) task was performed in independent groups of mice as regards to the CSD and radial maze tasks. The SA task allows investigation of aged-induced working memory impairments (Vandesquille et al. [2011]). In this task, mice are submitted to a series of successive choices in a T-maze. To alternate from trial to trial, animals have to remember at each choice (except the first one) only the previous trial and to reset the interfering information from trial to trial over a series. This resetting mechanism is a main aspect of working memory (Aggleton et al. [1986]; Béracochéa and Jaffard, [1987]; Kesner [2005]).
Behavioral tests were conducted in a gray Plexiglas T-maze. Stem and arms are 35 cm long, 15 cm wide, and 10 cm high. The starting box (10 cm × 12 cm) and each goal arm are separated from the central alley by a vertical sliding door, with opening and closing monitored by a computer. Photoelectric cells allow recording of both the choice of the goal arm (left or right) and the latency (in seconds) that elapsed between the opening of the starting box and the closing of the goal box. The T-maze is located at the center of a room with various allocentric cues (white or black or striped card boards) located on the wall 1 m above the apparatus.
Animals were not food deprived, and no food reinforcement was used. Animals were first submitted to a habituation phase consisting of two free exploration sessions of 10 min each, over two consecutive days (one session per day) in the apparatus with all doors opened. At the end of the habituation phase, all animals were submitted to a training phase, involving a series of seven successive trials separated by a 30-s intertrial interval (ITI). The training phase was aimed at familiarizing the animals with the opening and closing of the doors.
For the training session, animals were submitted to a sequence of seven successive identical trials. At the beginning of a trial, mice were placed in the starting box and after a confinement period (30 s, predefined ITI), the door to the stem was opened. When the mouse entered one of the goal arms, the door was closed and the chosen arm was recorded. After a 30-s confinement period in the chosen arm, the mouse was gently returned to the starting box for a second trial, identical to the first one. To avoid olfactory cues in the apparatus, visible traces of urine were removed and the general procedure was implemented as in the training phase, except that the ITI was extended to 90 s and animals were submitted to a series of […] successive trials. […] Moreover, an 8th trial was added to the series which was separated from the 7th one by a 5-s ITI. […] The alternation score (in percentage) was used as an index of memory performance. An alternation is defined as a visit in a given arm followed by a visit into the other arm. The successive sequence of visits for the seven first trials determines the level of alternation. A percentage of alternation was calculated: number of alternations performed/number maximal of alternation. This percentage is calculated for each mouse.
For the sequential alternation task, mean and standard errors of the mean (SEM) were calculated for each group of treatment. In addition to % alternation drawn over the seven trials of the series, behavioral performances were also expressed in percentage of alternation drawn from blocks of two consecutive trials (block 1: trials 2 + 3; block 2: trials 4 + 5; block 3: trials 6 + 7). The analyses per trial blocks allowed evaluation of proactive interference over the series (Vandesquille et al. [2011], [2013]). Statistical analyses were performed using the Statview 5.0 software. […]

[2] = tested on: aged mice (22–24 months old); experiment: Radial maze working memory task; assay type: in vivo, mouse
Procedure: In the radial arm maze task, treatments were administered subcutaneously (s.c.) once a day 60 min prior to testing from the 2 days of habituation to the 12 days of memory testing.
The radial maze (Imetronic system, Pessac, France) was fully automated and enabled by video-tracking automatic testing and recording. Briefly, each mouse was separately assigned to six adjacent arms which were grouped into three pairs (A, B, C). These three pairs were presented repeatedly among the successive trials of each testing session. The location of the food reward varied in each pair according to an alternation rule among successive trials. Namely, among the two arms opened in a specific trial, the food was inserted in the arm which was not visited in the previous trial within the same pair. The mouse must therefore remember which of the two arms was visited in a specific trial until next presentation of the same pair, and so on in order to alternate its choice among successive presentations of any pair. At the beginning of each daily session, the mouse was placed in the central platform of the radial maze with all arms closed. One pair of arms only was opened at the beginning of each trial, and the mouse was required to visit one arm. The door of the non-chosen arm was closed as soon as the mouse reached the end of the chosen arm. The mouse was allowed to run back to the central platform of his own accord, and then, the door of the chosen arm was closed. The mouse remained in the central platform until the following trial (intertrial interval 10 s). Since three pairs were concurrently used, three specific arm visits must be kept in memory by the mouse until their utilization by using short-term working memory. After 2 days of free exploration in the maze (habituation), mice were submitted to 12 consecutive testing sessions: one session of 23 trials (3 “acquisition-only trials,” one by pair, and 20 “acquisition and test trials”) per day, i.e., a total of 276 trials (240 test trials).
Each session consisted of alternate presentations of pairs A, B, and C. The first three trials with each pair were acquisition trials (both arms rewarded). Each of the following trials was at the same time an acquisition trial (for the following trial with the same pair) and a test trial (for the arm visit made during the preceding trial with the same pair); the rewarded arm was the one that has not been visited on the preceding trial with the same pair. Memory demand varied across successive trials according to the retention interval RI (i.e., the number of intervening trials with other pairs between two successive presentations of the same pair). The retention interval for one specific arm visit (e.g., within pair A) depends on the number of concurring trials (i.e., with pairs B and C) occurring till next trial with the same pair (A). Indeed, such a variable amount of interposed trials proportionally increases the delay between acquisition and test and may also generate retroactive interference. There are five levels of retention interval: from 0, corresponding to “no interposed pair,” to 4, corresponding to a sequence of four interposed trials between n-1 and n trials.
During habituation, the time needed for visiting all six arms per session day was measured. During memory testing, memory performance was evaluated according to the percentage of correct alternation responses between successive trials with the same pair in three different manners.

[3] = tested on: rats; design: method as in Bretin et al. [2017]; details: acute administration, ref Bretin et al. [2017]; cited from earlier work
[4] = Procedure: The sampling times were 30 min, 1, 2, 4, and 6 h.
Plasma was extracted from the blood sample by centrifugation (+ 4 °C, 1500g, 10 min) and stored at − 80 °C. Then, plasma samples were sent in dry ice to Celerion (Switzerland) for the pharmacokinetic analysis.

[5] = tested on: middle-aged mice; design: method as in Giralt et al. [2017]; details: ref Giralt et al. [2017]; cited from earlier work
[6] = tested on: aged rats; design: method as in Calabrese et al. [2017]; details: dorsal hippocampus and prefrontal cortex of aged rats; ref Calabrese et al. [2017]; cited from earlier work
[7] = S 47445 0.01 mg/kg p.o. alone, n = 12
[8] = S 47445 0.03 mg/kg p.o. alone, n = 12
[9] = S 47445 0.3 mg/kg p.o. alone, n = 12
[10] = S 47445 1.0 mg/kg p.o. alone, n = 12
[11] = S 47445 0.3 mg/kg p.o. alone, repeated (day 10), blood, middle-aged mice

Q: With O=C1c2cc3nnn(CCc4cccc(F)c4)c(=O)c3cc2OCN1C1CC1 [S 47445] as the molecule, how does the “Alternation score, 3rd block of trials (trials 6 + 7)” value (“Alternation score, 3rd block” for short) [1, 7] read?
A: Its value is 45.833 ± 9.650 n = 12%.

Q: What about the “Alternation score, seven first trials of the series” value (shortened to “Alternation score … of the series”) [1, 7] of the same molecule?
A: The value was 59.722 ± 2.477 n = 12%.

Q: And the “Alternation score, 3rd block” value [1, 8]?
A: Its value is 50.000 ± 8.704 n = 12%.

Q: What about the “Alternation score … of the series” value [1, 8] of the same molecule?
A: Its value is 61.11 ± 4.738 n = 12%.

Q: And the “Alternation score, 3rd block” value ([1]; S 47445 0.1 mg/kg p.o. alone, n = 12)?
A: Its value is 70.833 ± 7.432 n = 12%.

Q: What about the “Alternation score … of the series” value ([1]; S 47445 0.1 mg/kg p.o. alone, n = 12, 0.1 mg/kg) of the same molecule?
A: Its value is “alternated significantly above vehicles”.

Q: And the “Alternation score … of the series” value ([1]; S 47445 0.1 mg/kg p.o. alone, n = 12, listed as S47445, 0.1 mg/kg)?
A: The value was 65.278 ± 3.815 n = 12 %.

Q: What about the “Alternation score, 3rd block” value [1, 9] of the same molecule?
A: Its value is 50.000 ± 8.704 n = 12%.

Q: And the “Alternation score … of the series” value [1, 9]?
A: The value was 61.111 ± 2.369 n = 12%.

Q: What about the “Alternation score, 3rd block” value [1, 10] of the same molecule?
A: The value was 58.333 ± 8.333 n = 12%.

Q: What about the “Alternation score … of the series” value [1, 10] of the same molecule?
A: Its value is 59.722 ± 3.217 n = 12%.

Q: What about the “Overall memory performance (mean percentage of correct responses over 12 days)” value ([2]; S 47445 0.3 mg/kg s.c. once a day, aged mice, versus aged vehicle (p ≤ 0.05)) of the same molecule?
A: The value was “better memory performance as compared to aged vehicle-treated mice”.

Q: And the “Performance as a function of retention interval (RI 0–4) versus chance level” value ([2]; S 47445 0.3 mg/kg s.c., aged mice (at least p ≤ 0.01))?
A: Its value is “remained significantly above chance level regardless the RI level”.

Q: And the “Performance as a function of proactive interference” value ([2]; S 47445 0.3 mg/kg s.c., aged mice, data not shown)?
A: The value was “ameliorated performance whatever the level of proactive interference”.

Q: What about the “Performance as a function of retention interval (RI 0–4) versus chance level” value ([2]; all other groups (S 47445 0.1 and 1 mg/kg s.c.), aged mice) of the same molecule?
A: The value was “dropped to chance level above R1 = 1”.

Q: And the “Episodic-like memory in object recognition” value [3]?
A: The value was “dose-related improvement”.

Q: And the “Mean AUClast [% CV]” value [4, 11]?
A: The value was 32.1 [7.83] ng h/mL.

Q: And the “Mean Cmax [% CV]” value [4, 11]?
A: The value was 10.2 [13.7] ng/mL.

Q: And the “Median Tmax [range]” value [4, 11]?
A: Its value is 1.5 [1–4] h.

Q: What about the “T1/2z [% CV]” value [4, 11] of the same molecule?
A: The value was 2.09 [32.0] h.

Q: What about the “Blood concentration at the active doses used in the pharmacological experiments” value ([4]; S 47445, limit of quantification 1 ng/ml) of the same molecule?
A: The value was “below the limit of quantification”.

Q: And the tmax ([4]; S 47445, not changed following combination)?
A: Its tmax is 1.5 h.

Q: And the Apparent elimination half-life ([4]; mouse, in vivo)?
A: Its Apparent elimination half-life is 2.1 to 3.6 h.

Q: And the “Mean AUClast [% CV]” value ([4]; mouse, in vivo)?
A: Its value is 32.6 [23.0] ng h/mL.

Q: And the “Mean Cmax [% CV]” value ([4]; mouse, in vivo)?
A: Its value is 8.46 [20.8] ng/mL.

Q: And the “Median Tmax [range]” value ([4]; mouse, in vivo)?
A: The value was 1.5 [1–2] h.

Q: And the “T1/2z [% CV]” value ([4]; mouse, in vivo)?
A: Its value is 3.58 [66.9] h.

Q: And the “Time after dosing at which Cmax was reached” value ([4]; mouse, in vivo)?
A: Its value is 1 to 4 h.

Q: And the “In vivo CA3-CA1 long-term potentiation and structural synaptic changes” value [5]?
A: Its value is “rescues in vivo CA3-CA1 long-term potentiation and structural synaptic changes”.

Q: And the Neurotrophic effects [6]?
A: The Neurotrophic effects was “displayed neurotrophic effects”.
